Source: patent US20240309090A1, “MODULATION OF ANDROGEN SIGNALING TO INNATE IMMUNE KILLING OF PROSTATE CANCER” (Brown University, priority 2023, published 2024)

Legend:
Format in all cases: cell-based
[1] = system: PC3 cell line; assay: Flow cytometry of HLA-E surface expression on AR-negative PC3; conditions: non-AR-transduced PC3
Source text: (§1) To evaluate the modulation of the androgen receptor and tumor HLA-E expression, we astably transduced AR negative cell lines PC3 and DU145 with an Androgen Response Element (ARE) GFP reporter (FIG. 16H). […] Using AR+ constructed cell lines, PC3 and DU145, we sought to determine the dependence of HLA-E expression and possible modulation by AR. […] Although potential therapies targeting immune enhancement are being explored, the expression of exhaustion markers such as PD-1, NKG2A, and potential engaging ligands that diminish their cytotoxic function limits their application. Exploring these factors with new combination approaches, such as ARi and anti-NKG2A, and understanding the modulation of its targets upon treatment is key in overcoming immune-resistant scenarios, especially in prostate cancer.
Experiments were conducted with noncytotoxic doses of vorinostat (0.3 μM) and panobinostat (3 nM).
PCa cells were plated at a density of 3×10^5 cells per well of a 6-well plate and adhered overnight. […] After treatment, cells were trypsinized, stained, and incubated (Cell Staining Buffer SouthernBiotech #0225-01S) with the corresponding antibody for 45-60 min at 4° C. Viability dye was added with each run. NK-92 cells and patient-derived cells were stained similarly. Markers used for experiments included: Thermofisher HLA-E Monoclonal Antibody (3D12HLA-E), Alexa Fluor™ 488, eBioscience™, CD274 (PD-L1, B7-H1) Monoclonal Antibody (MIH1), eFluor™ 450, eBioscience™, Cell Signaling PD-1 (D4W2J) XPR Rabbit mAb, SYTOX™ Orange Dead Cell Stain, for flow cytometry, BioLegend APC anti-human CD159a (NKG2A) Antibody #375108, BioLegend APC anti-human CD69 Antibody #310909, BioLegend Alexa Fluor® 647 anti-human CD137 (4-1BB) [4B4-1] #309823. For staining of the patient-derived PBMCs and subsequent NK cell characterization, the following antibodies were used: BioLegend Anti-Perforin Mouse Monoclonal Antibody (PerCP Cy5.50, clone: dG9) #308113, BioLegend Anti-Granzyme B Mouse Monoclonal Antibody (FITC, clone: GB11) #515403, BioLegend Anti-CD56 Mouse Monoclonal Antibody (Alexa Fluor® 700, clone: 5.1H1) #362521, and BioLegend (PE anti-human CD45 Antibody) #304008.

[2] = system: DU145; assay: Flow cytometry of HLA-E surface expression on non-AR-transduced DU145
Source text: as §1
(§2) PCa cells were plated at a density of 3×10^5 cells per well of a 6-well plate and adhered overnight. […] After treatment, cells were trypsinized, stained, and incubated (Cell Staining Buffer SouthernBiotech #0225-01S) with the corresponding antibody for 45-60 min at 4° C. Viability dye was added with each run. NK-92 cells and patient-derived cells were stained similarly. […]

[3] = system: AR-transduced PC3-AR and DU145 cell lines; assay: Flow cytometry of HLA-E surface expression on AR-transduced PC3 and DU145
Source text: as §1, §2

[4] = system: PC3; assay: Co-culture of PC3 with NK-92 cells, immune-mediated tumor cell killing; conditions: PC3 + NK-92 1:1, 24 hours
Procedure: (§3) They were co-treated with enzalutamide ([…]) or darolutamide (20 μM) for 48 h. Doses of AR inhibitors (ARi) used in the co-culture experiments were based on previous IC50 experiments. […] The immune-mediated effect of NK-92 on the PCa cell lines in the presence of enzalutamide (immune enhancement death) was normalized to baseline immune and tumor cell killing in each condition [(tumor cells+immune cells)-tumor baseline death=baseline immune death]. […] Cytokine analysis was performed to investigate the activation phenotype of NK cells when treated with ARi.
(§4) Prostate cancer cell lines were dyed with the blue CMAC live-cell dye (Thermo Fisher Scientific #C2110, per manufacturer protocol). […] Cell adhered over 24 h, and when patient-derived NK cells were added, a control well was trypsinized, and cells resuspended and counted to adjust a 1:1 ratio before treatment addition. […]
(§5) Live cancer cells, NK cells, and dead cells were quantified using FIJI (Fiji Is Just ImageJ) software for images derived from fluorescent co-culture images. Images from the ImageXpress system were quantified using MetaXpress cytoplasmic/nuclear staining software. The percent of dead tumor cells in each well was quantified, and this percentage was normalized by subtracting baseline death from cancer cell-only wells, NK cell-only wells, or both.

[5] = system: NK-92 cells; assay: NK cell viability assay (CellTiterGlo); conditions: NK cells alone, doses used in co-culture
Procedure: For NK cell viability assays, 5×10^3 cells were plated in a 96-well plate, and viability (72h) was measured using a CellTiterGlo assay.

[6] = system: DU145; assay: Co-culture of DU145 with NK-92 cells, immune-mediated tumor cell killing; conditions: DU145 + NK-92 1:1, 24 hours
Procedure: as §3, §4, §5

[7] = system: 22Rv1; assay: Co-culture of 22Rv1 with NK-92 cells, immune-mediated tumor cell killing
Procedure: as §3
Prostate cancer cell lines were dyed with the blue CMAC live-cell dye (Thermo Fisher Scientific #C2110, per manufacturer protocol). Blue-fluorescent cancer cells were plated at a density of 10,000 cells per well of a 48-well plate. NK-92 cells were dyed with green CMFDA (Cayman Chemical Company #19583, per manufacturer protocol). Green-fluorescent NK-92 cells were added to the blue-fluorescent cancer cells at a 1:1 ratio. Enzalutamide (10 μM), darolutamide (20 μM), and 1 μM ethidium homodimer (EthD-1) were added at the same time as the NK cells. After 24 hours of co-culture, images of live cancer cells, live NK cells, and dead cells were taken using a fluorescent microscope. The co-culture experiments were run with internal control conditions and as a single treatment. Normalization was performed after analysis to take baseline death conditions into each experiment run. […] Cell adhered over 24 h, and when patient-derived NK cells were added, a control well was trypsinized, and cells resuspended and counted to adjust a 1:1 ratio before treatment addition. […]
as §5

| Compound | HLA-E expression [1] | HLA-E expression [2] | HLA-E surface expression upon ARi ([3]; AR-responsive PC3-AR) | HLA-E surface expression upon ARi ([3]; AR-transduced (AR-responsive) DU145) | cell death rate (NK cell-mediated tumor killing) [4] | NK cell viability [5] | cell death rate (NK cell-mediated tumor killing) [6] | cell death rate (NK cell-mediated tumor killing) ([7]; 22Rv1 + NK-92 1:1, 24 hours) | NK cell killing of PCa cells (immune enhancement) ([7]; 22Rv1 + NK-92 1:1, enzalutamide 10 μM, FIG. 15B) |
| --- | --- | --- | --- | --- | --- | --- | --- | --- | --- |
| CC(O)c1cc(C(=O)N[C@@H](C)Cn2ccc(-c3ccc(C#N)c(Cl)c3)n2)n[nH]1 (stereo partly drawn) [darolutamide] | 15.47% | 1.23% | increased | increased |  |  |  |  |  |
| CNC(=O)c1ccc(N2C(=S)N(c3ccc(C#N)c(C(F)(F)F)c3)C(=O)C2(C)C)cc1F [enzalutamide] |  |  |  |  | 11.05±4.6% | noncytotoxic | 34.8±4.92% | 52.67±8.96% | 34.84% |
